According to patent publication US20110065595A1, “Method and Test Kit for the Rapid Identification and Characterization of Cells” (priority 2007, published 2011):

Tested on: strain B of Bacillus cereus (β-lactamase SF-marker)
Assay: Sensitivity profile of B. cereus in soil suspension using inducible β-lactamase as SF-marker (iodometric starch-iodine decolorization)
Type: cell-based
Settings: for effect on activity / synthesis of the SF marker (β-lactamase) / sensitivity or resistance of strain B to the antibiotic: judged from decolorization time; for Decolorization time: soil suspension in nutrient broth with 1.0 mcg cloxacillin inducer, 10 min at 30° C., then Assay Reagent with phenoxymethylpenicillin, control without addition 47 seconds, activity inversely proportional to time; for inhibition of the enzymatic reaction / remaining part of the enzymatic reaction: compared with control sample; for increase of time needed for decolorization versus control: compared with control sample (47 seconds)
Procedure: Reagents • Nutrient broth and Nutrient Agar were purchased from Difco (cat. No. #233000 and #211665, respectively). • Mueller Hinton agar—purchased from Difco (cat. No. 225250). • Assay Reagent solution—50 mM potassium iodide and 10 mM iodine in 0.75% aqueous starch solution • L-alanine—was used for spore germination (purchased from Fluka, cat no. 29236).
BBL antibiotic sensitivity testing disks were used for sensitivity profiling were placed in respective test tubes:
Preparation of anti-penicillinase antibodies was previously described by the present inventor [Citri, N; et al. Nature 190 (478):1010-1011 (1961)]. Briefly neutralizing antiserum was prepared by immunizing rabbits with a highly purified preparation of exopenicillinase produced by strain 569/H of B. cereus. Twenty mg of the enzyme were administered with Freund's adjuvant in three intramuscular injections at ten-day intervals.
In order to perform a combined characterization of bacteria identification and antibiotic sensitivity profiling, the inventor used a strain of Bacillus cereus expressing the characterizing enzyme β-lactamase (penicillinase) that is used herein as a structural-functional marker (SF-marker).
A colony of strain B of Bacillus cereus was dispersed in 0.5 gm of garden soil suspended in 3 ml of distilled water. Samples of the suspension, 0.3 ml each, were placed in 5 test, tubes, each containing 0.5 ml nutrient broth [double strength] spiked with 1.0 mcg cloxacillin, and each supplemented as listed in Table 1 below. After 10 min. at 30° C. the test was initiated by the addition to each test tube of 0.1 ml of the Assay Reagent solution containing the substrate, phenoxymethylpenicillin [10 mg/mL]. The time required for complete decolorization of the starch-iodine complex by the product of the catalytic reaction was recorded as shown in Table 1.

Compound | effect on activity / synthesis of the SF marker (β-lactamase) | sensitivity or resistance of strain B to the antibiotic | Decolorization time | inhibition of the enzymatic reaction | remaining part of the enzymatic reaction | increase of time needed for decolorization versus control
Gentamicin | no effect | resistant | 48 s |  |  | 
CC[C@H]1OC(=O)[C@H](C)[C@@H](O[C@H]2C[C@@](C)(OC)[C@@H](O)[C@H](C)O2)[C@H](C)[C@@H](O[C@@H]2O[C@H](C)C[C@H](N(C)C)[C@H]2O)[C@](C)(O)C[C@@H](C)C(=O)[C@H](C)[C@@H](O)[C@]1(C)O [Erythromycin] | inhibited | sensitive | >850 s | about 99% | about 0.12% | ~18 folds
C[C@H]1c2cccc(O)c2C(=O)C2=C(O)[C@]3(O)C(=O)C(C(N)=O)=C(O)[C@@H](N(C)C)[C@@H]3[C@@H](O)[C@@H]21 [Doxycyclin, Doxycycline] | inhibited | sensitive | 815 s | about 99% | about 0.12% | about 17.3 folds
